Test results: patent US20240116877A1, “KIT KINASE INHIBITORS AND METHODS OF USE THEREOF” (Deciphera Pharmaceuticals, LLC, priority 2021, published 2024)
pIC50: −log10 of the molar value. Where two headings read alike, the source gives them in different places.

What was measured:
[1] = target: c-KIT kinase (uKIT) (Homo sapiens (Human), UniProt P10721); assay: Biochemical Assay for uKIT (coupled pyruvate kinase/lactate dehydrogenase assay); settings: Inhibition of biochemical activity of uKIT kinase; 1 mM ATP
How it was run: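 Continuous coupled PK/LDH assay following NADH oxidation at 340 nm for 6 h at 30° C, with 16 nM or 4.36 nM KIT (two constructs), 0.7 mg/mL PE4Y, 1 mM ATP, pH 7.5. Rates from the 2-3 h window converted to percent inhibition versus controls; IC50 fitted.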

[2] = system: Ba/F3 KIT mutant cells; assay: Ba/F3 mutant KIT Cell Proliferation Assays (resazurin); format: cell-based; settings: Mus musculus, BaF3
How it was run: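 IC50 values come from resazurin fluorescence (ex 540, em 600) after 5 h dye exposure, added as a 440 μM solution. Cells were IL-3-independent Ba/F3 expressing mutant KIT from a lentiviral vector, puromycin-selected.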

[3] = system: GIST 430 cells; assay: GIST 430 Cell Proliferation Assay (resazurin); format: cell-based; settings: Homo sapiens; GIST430 cell proliferation
How it was run: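 Five thousand cells per well were exposed to serially diluted compound in complete growth medium for 115 h at 37 degrees Celsius, 5% CO2. Resazurin was then added for a further 5 h, fluorescence read at 540 nm excitation/600 nm emission, and IC50 values calculated.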

[4] = Ba/F3 KIT AYdup mutant cell proliferation, read-out: AYdup IC50
[5] = Ba/F3 KIT AYdup-D816G mutant cell proliferation, read-out: AYdup-D816G IC50
[6] = Ba/F3 KIT AYdup-V654A mutant cell proliferation, read-out: AYdup-V654A IC50
[7] = Ba/F3 KIT exon11del-V654A mutant cell proliferation, read-out: exon11del-V654A IC50
[8] = Ba/F3 KIT exon11del-Y823D mutant cell proliferation, read-out: exon11del-Y823D IC50

Chain of c-KIT kinase (uKIT) (P10721 other isoform, or with tags, fused parts or gaps): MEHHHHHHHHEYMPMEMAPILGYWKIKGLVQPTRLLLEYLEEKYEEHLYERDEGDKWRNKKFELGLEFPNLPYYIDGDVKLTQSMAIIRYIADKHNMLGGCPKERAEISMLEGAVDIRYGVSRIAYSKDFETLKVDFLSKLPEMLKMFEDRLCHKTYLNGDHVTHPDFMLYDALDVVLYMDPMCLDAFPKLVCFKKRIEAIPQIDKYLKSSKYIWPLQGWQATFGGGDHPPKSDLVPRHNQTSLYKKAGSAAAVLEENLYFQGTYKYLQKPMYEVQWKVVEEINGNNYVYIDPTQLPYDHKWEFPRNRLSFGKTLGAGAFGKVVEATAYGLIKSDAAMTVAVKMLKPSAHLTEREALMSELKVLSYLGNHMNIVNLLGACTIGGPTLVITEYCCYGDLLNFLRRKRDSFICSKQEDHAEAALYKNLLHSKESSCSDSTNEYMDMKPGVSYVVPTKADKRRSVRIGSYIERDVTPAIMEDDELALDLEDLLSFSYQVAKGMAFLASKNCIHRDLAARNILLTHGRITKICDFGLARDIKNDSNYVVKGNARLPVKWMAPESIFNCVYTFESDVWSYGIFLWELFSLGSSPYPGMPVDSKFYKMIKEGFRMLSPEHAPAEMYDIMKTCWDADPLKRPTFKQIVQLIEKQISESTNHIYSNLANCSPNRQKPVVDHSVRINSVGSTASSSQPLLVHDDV

| pIC50 [1] | pIC50 [2, 4] | pIC50 [2, 5] | pIC50 [2, 6] | pIC50 [2, 7] | pIC50 [2, 8] | SMILES | pIC50 [3] |
| --- | --- | --- | --- | --- | --- | --- | --- |
| 7.00 to 8.00 | ≥ 8.00 | 7.00 to 8.00 | 7.00 to 8.00 | ≥ 8.00 | 7.00 to 8.00 | COCCOc1cc(F)c2c(Nc3ccc(NC(=O)CC(=O)NC(C)(C)C4CC4)cc3)ncnc2c1 [Example 131] | 7.00 to 8.00 |
| 7.00 to 8.00 | – | – | 6.00 to 7.00 | 7.00 to 8.00 | – | COCCOc1cc(F)c2c(Nc3ccc(NC(=O)CC(=O)NCC4(C)COC4)cc3)ncnc2c1 [Example 132] | 6.00 to 7.00 |
| ≥ 8.00 | – | – | ≥ 8.00 | ≥ 8.00 | 7.00 to 8.00 | COCCOc1cc(F)c2c(Nc3ccc(NC(=O)NCC=C(C)C)cc3)ncnc2c1 [Example 133] | 7.00 to 8.00 |
| ≥ 8.00 | – | – | ≥ 8.00 | ≥ 8.00 | 7.00 to 8.00 | COCCOc1cc(F)c2c(Nc3ccc(NC(=O)CC(=O)NC4CC5(CCC5)C4)cc3)ncnc2c1 [Example 135] | ≥ 8.00 |
| 7.00 to 8.00 | – | – | 7.00 to 8.00 | ≥ 8.00 | 6.00 to 7.00 | COCCOc1cc(F)c2c(Nc3ccc(NC(=O)CC(=O)NCC4CC(C)(C)C4)cc3)ncnc2c1 [Example 136] | 7.00 to 8.00 |
| 7.00 to 8.00 | – | – | 7.00 to 8.00 | 7.00 to 8.00 | < 6.00 | COCCOc1cc(F)c2c(Nc3ccc(NC(=O)NC(=O)CC4(C(F)(F)F)COC4)cc3)ncnc2c1 [Example 137] | 7.00 to 8.00 |
| ≥ 8.00 | ≥ 8.00 | 7.00 to 8.00 | 7.00 to 8.00 | ≥ 8.00 | 6.00 to 7.00 | CC(C)(F)CCNC(=O)Nc1ccc(Nc2ncnc3cc(OC4CCOCC4)cc(F)c23)cc1 [Example 138] | 7.00 to 8.00 |
| 7.00 to 8.00 | ≥ 8.00 | 7.00 to 8.00 | 7.00 to 8.00 | ≥ 8.00 | < 6.00 | COCCOc1cc(F)c2c(Nc3ccc(NC(=O)CC(=O)N4CC(C)(C)C4)cc3)ncnc2c1 [Example 139] | 7.00 to 8.00 |
| 7.00 to 8.00 | – | – | 7.00 to 8.00 | 7.00 to 8.00 | 6.00 to 7.00 | COCCOc1cc(F)c2c(Nc3ccc(NC(=O)CC(=O)N4CCCC4(C)C)cc3)ncnc2c1 [Example 140] | 7.00 to 8.00 |
| 7.00 to 8.00 | ≥ 8.00 | 7.00 to 8.00 | 7.00 to 8.00 | ≥ 8.00 | 7.00 to 8.00 | COCCOc1cc(F)c2c(Nc3ccc(NC(=O)CC(=O)N4CCC(C)(C)C4)cc3)ncnc2c1 [Example 141] | 7.00 to 8.00 |
| 7.00 to 8.00 | – | – | 7.00 to 8.00 | 7.00 to 8.00 | 7.00 to 8.00 | COCCOc1cc(F)c2c(Nc3ccc(NC(=O)CC(=O)N4CCCCC4(C)C)cc3)ncnc2c1 [Example 142] | 7.00 to 8.00 |
| 7.00 to 8.00 | ≥ 8.00 | 7.00 to 8.00 | 7.00 to 8.00 | ≥ 8.00 | 7.00 to 8.00 | COCCOc1cc(F)c2c(Nc3ccc(NC(=O)CC(=O)N(C)C(C)(C)C)cc3)ncnc2c1 [Example 143] | ≥ 8.00 |
| 6.00 to 7.00 | – | – | 6.00 to 7.00 | 6.00 to 7.00 | – | COCCOc1cc(F)c2c(Nc3ccc(NC(=O)CC(=O)NC4(C)COC4)cc3)ncnc2c1 [Example 144] | 6.00 to 7.00 |
| 7.00 to 8.00 | ≥ 8.00 | 7.00 to 8.00 | 7.00 to 8.00 | ≥ 8.00 | 7.00 to 8.00 | CC(C)(C)CNC(=O)CC(=O)Nc1ccc(Nc2ncnc3cc(OCCN4CCOCC4)cc(F)c23)cc1 [Example 145] | 7.00 to 8.00 |
| 6.00 to 7.00 | – | – | 6.00 to 7.00 | 7.00 to 8.00 | – | CCN(C(=O)CC(=O)Nc1ccc(Nc2ncnc3cc(OCCOC)cc(F)c23)cc1)C(C)C [Example 146] | 6.00 to 7.00 |
| 7.00 to 8.00 | – | – | 6.00 to 7.00 | 7.00 to 8.00 | < 6.00 | CNC(=O)COc1cc(F)c2c(Nc3ccc(NC(=O)NCCC(C)(C)F)cc3)ncnc2c1 [Example 147] | 6.00 to 7.00 |
| 7.00 to 8.00 | – | – | 6.00 to 7.00 | 7.00 to 8.00 | – | CN(C)C(=O)COc1cc(F)c2c(Nc3ccc(NC(=O)NCCC(C)(C)F)cc3)ncnc2c1 [Example 148] | 6.00 to 7.00 |
| ≥ 8.00 | – | – | 7.00 to 8.00 | 7.00 to 8.00 | 7.00 to 8.00 | CC(C)(F)CCNC(=O)Nc1ccc(Nc2ncnc3cc(OC[C@@H]4CCOC4)cc(F)c23)cc1 [Example 149] | 7.00 to 8.00 |
| ≥ 8.00 | ≥ 8.00 | 7.00 to 8.00 | 7.00 to 8.00 | 7.00 to 8.00 | 6.00 to 7.00 | CC(C)(F)CCNC(=O)Nc1ccc(Nc2ncnc3cc(OCCN4CCCC4)cc(F)c23)cc1 [Example 150] | 7.00 to 8.00 |

| pIC50 [1] | pIC50 [2, 4] | pIC50 [2, 5] | pIC50 [2, 6] | pIC50 [2, 7] | pIC50 [2, 8] | SMILES | pIC50 [3] |
| --- | --- | --- | --- | --- | --- | --- | --- |
| ≥ 8.00 | – | – | 7.00 to 8.00 | 7.00 to 8.00 | 6.00 to 7.00 | CC(C)(F)CCNC(=O)Nc1ccc(Nc2ncnc3cc(OC[C@H]4CCOC4)cc(F)c23)cc1 [Example 151] | 7.00 to 8.00 |
| 7.00 to 8.00 | – | – | 7.00 to 8.00 | 7.00 to 8.00 | 6.00 to 7.00 | COCCOc1cc(F)c2c(Nc3ccc(NC(=O)CC(=O)N4CCC(C)(C)CC4)cc3)ncnc2c1 [Example 152] | 7.00 to 8.00 |
| 7.00 to 8.00 | – | – | 7.00 to 8.00 | 6.00 to 7.00 | 6.00 to 7.00 | COCCOc1cc(F)c2c(Nc3ccc(NC(=O)CC(=O)N4CCC(C(F)(F)F)C4)cc3)ncnc2c1 (centres unmarked) [Example 153] | 7.00 to 8.00 |
| 7.00 to 8.00 | – | – | 6.00 to 7.00 | 6.00 to 7.00 | 6.00 to 7.00 | COCCOc1cc(F)c2c(Nc3ccc(NC(=O)CC(=O)N4CCOCC4(C)C)cc3)ncnc2c1 [Example 154] | 7.00 to 8.00 |
| ≥ 8.00 | – | – | 7.00 to 8.00 | 7.00 to 8.00 | 6.00 to 7.00 | COC[C@@H](C)Oc1cc(F)c2c(Nc3ccc(NC(=O)NCCC(C)(C)F)cc3)ncnc2c1 [Example 155] | 6.00 to 7.00 |
| ≥ 8.00 | ≥ 8.00 | 7.00 to 8.00 | 7.00 to 8.00 | 7.00 to 8.00 | 7.00 to 8.00 | CO[C@H](C)COc1cc(F)c2c(Nc3ccc(NC(=O)NCCC(C)(C)F)cc3)ncnc2c1 [Example 156] | 7.00 to 8.00 |
| 7.00 to 8.00 | – | – | 6.00 to 7.00 | 6.00 to 7.00 | 6.00 to 7.00 | COC[C@H](C)Oc1cc(F)c2c(Nc3ccc(NC(=O)NCCC(C)(C)F)cc3)ncnc2c1 [Example 157] | 6.00 to 7.00 |
| ≥ 8.00 | ≥ 8.00 | ≥ 8.00 | ≥ 8.00 | 7.00 to 8.00 | 7.00 to 8.00 | CC(C)(F)CCNC(=O)Nc1ccc(Nc2ncnc3cc(OCCCN4CCCC4)cc(F)c23)cc1 [Example 158] | 7.00 to 8.00 |
| ≥ 8.00 | – | – | 7.00 to 8.00 | 7.00 to 8.00 | 7.00 to 8.00 | CC(C)(F)CCNC(=O)Nc1ccc(Nc2ncnc3cc(OCCC4COC4)cc(F)c23)cc1 [Example 159] | 7.00 to 8.00 |
| ≥ 8.00 | ≥ 8.00 | 7.00 to 8.00 | ≥ 8.00 | 7.00 to 8.00 | 7.00 to 8.00 | CC(C)(F)CCNC(=O)Nc1ccc(Nc2ncnc3cc(OC[C@H]4CCCO4)cc(F)c23)cc1 [Example 161] | 7.00 to 8.00 |
| ≥ 8.00 | ≥ 8.00 | 7.00 to 8.00 | 7.00 to 8.00 | 7.00 to 8.00 | 7.00 to 8.00 | CC(C)(F)CCNC(=O)Nc1ccc(Nc2ncnc3cc(OC[C@@H]4CCCO4)cc(F)c23)cc1 [Example 162] | 7.00 to 8.00 |
| 6.00 to 7.00 | – | – | 6.00 to 7.00 | < 6.00 | 6.00 to 7.00 | COCCOc1cc(F)c2c(Nc3ccc(NC(=O)CC(=O)N(C(C)C)C(C)C)cc3)ncnc2c1 [Example 163] | 6.00 to 7.00 |
| 7.00 to 8.00 | – | – | 6.00 to 7.00 | 6.00 to 7.00 | 6.00 to 7.00 | COCCOc1cc(F)c2c(Nc3ccc(NC(=O)CC(=O)N4CCC(F)(F)CC4)cc3)ncnc2c1 [Example 164] | 7.00 to 8.00 |
| 7.00 to 8.00 | – | – | 7.00 to 8.00 | 6.00 to 7.00 | 6.00 to 7.00 | COCCOc1cc(F)c2c(Nc3ccc(NC(=O)CC(=O)N4CCCC(F)(F)C4)cc3)ncnc2c1 [Example 165] | 7.00 to 8.00 |
| 7.00 to 8.00 | – | – | 7.00 to 8.00 | 7.00 to 8.00 | 7.00 to 8.00 | COCCOc1cc(F)c2c(Nc3ccc(NC(=O)CC(=O)N4CCCC(C)(C)C4)cc3)ncnc2c1 [Example 166] | 7.00 to 8.00 |
| 7.00 to 8.00 | – | – | 7.00 to 8.00 | 6.00 to 7.00 | 6.00 to 7.00 | COCCOc1cc(F)c2c(Nc3ccc(NC(=O)CC(=O)N4CCC4(C)C)cc3)ncnc2c1 [Example 167] | 7.00 to 8.00 |
| 7.00 to 8.00 | – | – | 7.00 to 8.00 | 7.00 to 8.00 | 7.00 to 8.00 | COCCOc1cc(F)c2c(Nc3ccc(NC(=O)CC(=O)NC4CCC4(C)C)cc3)ncnc2c1 (centres unmarked) [Example 168] | ≥ 8.00 |
| 7.00 to 8.00 | – | – | 7.00 to 8.00 | 6.00 to 7.00 | 6.00 to 7.00 | COCCOc1cc(F)c2c(Nc3ccc(NC(=O)CC(=O)N4CCCC4C(F)(F)F)cc3)ncnc2c1 (centres unmarked) [Example 169] | 7.00 to 8.00 |
